# According to ChEMBL document CHEMBL5154727, “Discovery of novel diphenylbutene derivative ferroptosis inhibitors as neuroprotective agents” (Eur J Med Chem, 2022):
# Active and inactive are the calls of the source. The calls are words filed in the database; no cut-off is given here.
# Legend:
# HT-22 [1] = assay: Anti-ferroptotic activity against Erastin-induced ferroptosis in […] cells assessed as […] cell viability measured after 24 hrs by MTT assay; assay type: functional, cell-based; settings: Mus musculus, HT-22, 24 h
# [2] = Permeability of the compound in PBS/EtOH buffer (70:30) incubated for 10 hrs by UV plate reader based PAMPA-BBB assay; assay type: ADME; settings: read-out: permeability
# HT-22 [3] = assay: Cytotoxicity against […] cells at 40 uM; assay type: toxicity, cell-based; settings: mouse, ht-22, 40 µM
# HT-22 [4] = assay: Anti-ferroptotic activity against Erastin-induced ferroptosis in […] cells assessed as […] cell viability measured after 24 hrs by MTT assay relative to control; assay type: functional, Mus musculus
# [5] = Metal chelating activity assessed as compound-Fe2+ complex formation at 50 uM by UV-Vis spectroscopic analysis
# [6] = Metal chelating activity assessed as compound-Fe3+ complex formation at 50 uM by UV-Vis spectroscopic analysis
# HT-22 [7] = assay: Effect on intracellular Fe2+ level in […] cells assessed as fluorescence intensity at 5 uM measured after 10 hrs by Hoechst/FerroOrange staining based confocal laser microscopy; assay type: functional, cell-based; settings: Mus musculus
# HT-22 [8] = assay: Anti-ferroptotic activity against Erastin-induced ferroptosis in […] cells assessed as inhibition of cell death measured after 24 hrs by MTT assay; assay type: functional, cell-based; settings: Mus musculus, HT-22, 24 h
# HT-22 [9] = assay: Anti-ferroptotic activity against RSL-3 induced ferroptosis in […] cells assessed as inhibition of cell death measured after 24 hrs by MTT assay; assay type: functional, cell-based; settings: Mus musculus, HT-22, 24 h
# HT-1080 [10] = assay: Anti-ferroptotic activity against siRNA-mediated GPX4 knockdown induced ferroptosis in human HT-1080 cells at 5 uM preincubated for 12 hrs in Opti-MEM medium followed by compound addition and measured after 36 hrs; assay type: functional, cell-based
# HT-22 [11] = assay: Anti-ferroptotic activity against RSL-3-induced morphological changes in […] cells assessed as retention of cell morphology measured after 24 hrs; assay type: functional, cell-based; settings: Mus musculus, dose 1.25-5 µM, DDE = dose-dependent effect
# HT-22 [12] = assay: Reduction in ROS accumulation in RSL-3 treated […] cells assessed as reduction in fluorescence intensity at 5 uM incubated for 4 hrs by C11-BODIPY staining based confocal laser scanning microscopic analysis; assay type: functional, cell-based; settings: Mus musculus
# HT-22 [13] = assay: Reduction in lipid ROS accumulation in RSL-3 treated […] cells incubated for 4 hrs by C11-BODIPY staining based flow cytometric analysis; assay type: functional, cell-based; settings: Mus musculus, dose 1.25-5 µM, DDE = dose-dependent effect
# HT-22 [14] = assay: Reduction in cytosolic ROS accumulation in RSL-3 treated […] cells incubated for 4 hrs by H2DCFDA fluorescent probe based flow cytometry method; assay type: functional, cell-based; settings: Mus musculus, dose 1.25-5 µM, DDE = dose-dependent effect
# HT-22 [15] = assay: Inhibition of RSL-3 induced Ptgs2 mRNA expression in […] cells measured after 4 hrs by quantitative PCR analysis; assay type: functional, cell-based; settings: Mus musculus, dose 1.25-5 µM
# HT-22 [16] = assay: Upregulation of FSP1 protein level in […] cells measured after 6 hrs by Western blot analysis; assay type: functional, cell-based; settings: Mus musculus, dose 1.25-5 µM
# HT-22 [17] = assay: Upregulation of FSP1 mRNA level in […] cells measured after 6 hrs by quantitative PCR analysis; assay type: functional, cell-based; settings: Mus musculus, dose 1.25-5 µM
# Rattus norvegicus [18] = assay: Neuroprotective activity against middle cerebral artery occlusion-induced ischemia-reperfusion injury Sprague-Dawley rat model assessed as reduction in infarct volume at 20 mg/kg, ip measured after 24 hrs by TTC staining based assay; assay type: functional, organism-based
# Rattus norvegicus [19] = assay: Neuroprotective activity against middle cerebral artery occlusion-induced ischemia-reperfusion injury Sprague-Dawley rat model assessed as reduction in neurobehavioral defects at 20 mg/kg, ip measured after 24 hrs by Longa test; assay type: functional, organism-based
# Rattus norvegicus [20] = assay: Neuroprotective activity against middle cerebral artery occlusion-induced ischemia-reperfusion injury Sprague-Dawley rat model assessed as morphological changes at 20 mg/kg, ip measured after 24 hrs by H and E staining-based assay; assay type: functional, organism-based
# Rattus norvegicus [21] = assay: Neuroprotective activity against middle cerebral artery occlusion-induced ischemia-reperfusion injury Sprague-Dawley rat model assessed as morphological changes at 20 mg/kg, ip measured after 24 hrs by Nissl staining based assay; assay type: functional, organism-based
# Rattus norvegicus [22] = assay: Neuroprotective activity against middle cerebral artery occlusion-induced ischemia-reperfusion injury Sprague-Dawley rat model assessed as reduction in PTGS2 mRNA expression level at 20 mg/kg, ip measured after 24 hrs by TTC staining based assay; assay type: functional, organism-based
# Rattus norvegicus [23] = assay: Neuroprotective activity against middle cerebral artery occlusion-induced ischemia-reperfusion injury Sprague-Dawley rat model assessed as reduction in MDA level at 20 mg/kg, ip measured after 24 hrs by TTC staining based assay; assay type: functional, organism-based
# Rattus norvegicus [24] = assay: Neuroprotective activity against middle cerebral artery occlusion-induced ischemia-reperfusion injury Sprague-Dawley rat model assessed as reduction in 4-HNE level at 20 mg/kg, ip measured after 24 hrs by TTC staining based assay; assay type: functional, organism-based
# HT-22 [25] = assay: Upregulation of FSP1 protein level in […] cells assessed as increase in reduced to oxidized COQ10 ratio measured after 6 hrs by Western blot analysis; assay type: functional, cell-based; settings: Mus musculus
# HT-22 [26] = assay: Reduction in ROS accumulation in RSL-3 treated […] cells assessed as reduction in fluorescence intensity at 1 uM incubated for 4 hrs by C11-BODIPY staining based confocal laser scanning microscopic analysis; assay type: functional, cell-based; settings: Mus musculus
# HT-1080 [27] = assay: Anti-ferroptotic activity against siRNA-mediated GPX4 knockdown induced ferroptosis in human HT-1080 cells at 1 uM preincubated for 12 hrs in Opti-MEM medium followed by compound addition and measured after 36 hrs; assay type: functional, cell-based
# HT-22 [28] = assay: Anti-ferroptotic activity against RSL-3-induced morphological changes in […] cells assessed as retention of cell morphology at 1 uM measured after 24 hrs; assay type: functional, cell-based; settings: Mus musculus
smiles,measurement,setting,value
O=C(/C(=C/C=C/c1ccccc1)c1cccc(O)c1)N1CCN(c2ncccn2)CC1,EC50,HT-22 [1],> 20 µM
same,Papp at 10 h,[2],14.5 ×10⁻⁶ cm/s
COc1ccc(/C(=C\C=C\c2ccccc2)C(=O)N2CCN(c3ncccn3)CC2)cc1OC,EC50,HT-22 [1],> 20 µM
same,Papp at 10 h,[2],16.4 ×10⁻⁶ cm/s
COc1ccccc1/C=C/C=C(/C(=O)N1CCN(c2ncccn2)CC1)c1ccccc1,EC50,HT-22 [1],> 20 µM
same,Papp at 10 h,[2],13.6 ×10⁻⁶ cm/s
O=C(/C(=C/C=C/c1ccccc1)c1ccc(O)cc1)N1CCN(c2ncccn2)CC1,EC50,HT-22 [1],> 20 µM
same,Papp at 10 h,[2],8.3 ×10⁻⁶ cm/s
COc1cccc(OC)c1/C=C/C=C(/C(=O)N1CCN(c2ncccn2)CC1)c1ccccc1,EC50,HT-22 [1],> 20 µM
COc1cccc(/C=C/C=C(/C(=O)N2CCN(c3ncccn3)CC2)c2ccccc2)c1,EC50,HT-22 [1],> 20 µM
same,Papp at 10 h,[2],10.2 ×10⁻⁶ cm/s
O=C(/C(=C/C=C/c1ccc(O)cc1)c1ccccc1)N1CCN(c2ncccn2)CC1,Activity,HT-22 [3],Non-Toxic
same,Activity,HT-22 [4],81.9%
same,EC50,HT-22 [1],12 µM
same,Papp at 10 h,[2],5.2 ×10⁻⁶ cm/s
O=C(/C(=C/C=C/c1cccc(O)c1)c1ccccc1)N1CCN(c2ncccn2)CC1,EC50,HT-22 [1],> 20 µM
same,Papp at 10 h,[2],9.9 ×10⁻⁶ cm/s
CC(=O)N(O)CCCCCNC(=O)CCC(=O)N(O)CCCCCNC(=O)CCC(=O)N(O)CCCCCN,Activity,[5],Active
same,Activity,[6],Active
COc1cc(/C(=C\C=C\c2ccccc2)C(=O)N2CCN(c3ncccn3)CC2)ccc1O,EC50,HT-22 [1],> 20 µM
same,Papp at 10 h,[2],10.2 ×10⁻⁶ cm/s
COc1cc(/C=C/C=C(/C(=O)N2CCN(c3ncccn3)CC2)c2ccccc2)ccc1O,Activity,HT-22 [7],Active
same,Activity,HT-22 [4],76.7%
same,EC50,HT-22 [1],1.7 µM
same,Papp at 10 h,[2],15.3 ×10⁻⁶ cm/s
same,EC50,HT-22 [8],1.7 µM
same,EC50,HT-22 [9],1.7 µM
same,Activity,HT-1080 [10],Active
same,Activity,HT-22 [11],Dde
same,Activity,HT-22 [12],Active
same,Activity,HT-22 [13],Dde
same,Activity,HT-22 [14],Dde
same,inhibition,HT-22 [15]; DDE = dose-dependent effect,Dde
same,Activity,HT-22 [16],Active
same,Activity,HT-22 [17],Active
same,Activity,Rattus norvegicus [18],Active
same,Activity,Rattus norvegicus [19],Active
same,Activity,Rattus norvegicus [20],Active
same,Activity,Rattus norvegicus [21],Active
same,Activity,Rattus norvegicus [22],Active
same,Activity,Rattus norvegicus [23],Active
same,Activity,Rattus norvegicus [24],Active
same,Activity,HT-22 [25],Active
COC(=O)c1ccc([C@H]2c3[nH]c4ccccc4c3C[C@H](C(=O)OC)N2C(=O)CCl)cc1,Activity,HT-22 [26],Active
same,inhibition,HT-22 [15],Active
COc1cc(/C=C/C=C(/C(=O)N2CCN(c3ncccn3)CC2)c2ccc(O)c(OC)c2)ccc1O,Activity,HT-22 [4],79.5%
same,EC50,HT-22 [1],4 µM
same,Papp at 10 h,[2],5.3 ×10⁻⁶ cm/s
CCOC(=O)c1ccc(NC2CCCCC2)c(N)c1,Activity,HT-1080 [27],Active
same,Activity,HT-22 [28],Active
same,Activity,HT-22 [26],Active
COc1cc(/C=C/C=C(/C(=O)N2CCN(c3ncccn3)CC2)c2cccc(O)c2)ccc1O,Activity,HT-22 [4],84.2%
same,EC50,HT-22 [1],4.5 µM
same,Papp at 10 h,[2],5.2 ×10⁻⁶ cm/s
COc1ccc(/C=C/C=C(/C(=O)N2CCN(c3ncccn3)CC2)c2ccccc2)cc1,EC50,HT-22 [1],> 20 µM
same,Papp at 10 h,[2],15.7 ×10⁻⁶ cm/s
COc1ccc(/C=C/C=C(/C(=O)N2CCN(c3ncccn3)CC2)c2ccccc2)c(OC)c1,EC50,HT-22 [1],> 20 µM
same,Papp at 10 h,[2],18.9 ×10⁻⁶ cm/s
